The values that follow come from paper PMC6096477, “Structure of a Talaromyces pinophilus GH62 arabinofuranosidase in complex with AraDNJ at 1.25 Å resolution” (Acta Crystallographica. Section F, Structural Biology …, 2018).

In this experiment the target is T1, Talaromyces pinophilus GH62 arabinofuranosidase (Talaromyces pinophilus, UniProt A0A2H5BN17).
T1 construct: single-module GH62 enzyme, secreted from Aspergillus oryzae; about 35 kDa; amino-terminal residue Ser24; chain traced 25-325; 2 subunits in asymmetric unit; no tag mentioned
In words: isothermal titration calorimetry. The format is binding.

T1 sequence (A0A2H5BN17 entry or part of it): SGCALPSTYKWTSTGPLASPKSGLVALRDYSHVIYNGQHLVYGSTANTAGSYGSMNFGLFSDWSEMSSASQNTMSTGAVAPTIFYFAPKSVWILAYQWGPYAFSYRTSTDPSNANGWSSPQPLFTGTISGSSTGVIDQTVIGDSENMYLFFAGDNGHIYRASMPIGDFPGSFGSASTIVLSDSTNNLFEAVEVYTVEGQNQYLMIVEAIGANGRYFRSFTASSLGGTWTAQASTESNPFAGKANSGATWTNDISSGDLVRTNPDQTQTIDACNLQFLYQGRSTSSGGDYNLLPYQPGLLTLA

Consider `OC[C@@H]1NC[C@H](O)[C@H]1O` [AraDNJ, 1,4-dideoxy-l,4-imino-L-arabinitol], for which the Kd (in general, the constant that tells how readily two partners part at equilibrium) turned out to be 24 ± 0.4 µM.
